In PMC11676204:
pIC50: −log10 of the molar value. Like-named read-outs stand apart in the source and are kept apart here. Values belong to the molecule of their own block, whether it stands above or below them.

How the values were obtained:
[1] = Pharmacokinetics after oral administration (plasma, UV spectrophotometry at 340 nm); type: in vivo; details: rat; for Cmax / MRT / AUC(0-t): plasma; for AUC(0-t): read-out: AUC 0–7 (converted)
Protocol: In accordance with the ICH guidelines Q2 (R1) (2005) standard calibration curves, regression equations, and values for LOD and LOQ for each compound were validated with UV spectrophotometric method. Various parameters, such as linearity, precision, limit of detection, and limit of quantification, were considered for the method validation. […] The rats were orally administered (10, 20, and 40 mg/Kg body weight, n = 3) using a 20 G gavage needle. The animals were given a standard diet 4 h after the dosing, and blood samples were collected (approximately 400 μL) from each animal and placed into heparinized tubes before the dosing and at 0, 30, 60, 120, 180, 240, 300, 360, and 420 min after the dosing. Plasma (100 μL) was separated by centrifuging blood samples at 3600 rpm for 10 min at room temperature, followed by immediate processing for the analyses.
Plasma concentration by the compound was measured by UV spectrophotometry at 340 nm and validated per ICH requirements. […] The precision studies gave % RSD less than 2 for intra-day and inter-day variations, and recovery studies were between 97–99%, indicating the reliability of method.
The plasma concentration–time graph obtained after oral administrations were subjected to non-compartmental analyses based on the statistical moment theory, as shown in Figure 6 and Table 4. Pharmacokinetic parameters were calculated using WinNorlin 5.2 (Certara; available at www.certara.com, accessed on 20 November 2024). The parameters obtained include maximum plasma concentration (Cmax), the time to reach Cmax (Tmax), the elimination half-life (t1/2), the area under the plasma concentration–time curve from time zero to infinity (AUC0–∞), the area under the plasma concentration–time curve from time zero to 420 min AUC0–7, the mean residence time (MRT), and clearance (CL).

ACE enzyme = ACE enzyme (Homo sapiens, UniProt P12821); experiment: ACE inhibition assay (absorbance at 340 nm)
Protocol: The enzyme solution and substrate were prepared under standard protocols, and the assay was performed in 96-well plates wherein the ACE enzyme and inhibitor were mixed with the substrate. The reaction was incubated at 37 °C for 30 min, after which the ACE activity was determined by measuring the absorbance at 340 nm that correlated with the product formation and enzyme activity [36]. The IC₅₀ values that specify inhibition at 50% concentration were generated from concentration-inhibition data. The percentage inhibition was calculated using the formula:Percentage Inhibition (%) = (A − C)/ (A − B) ∗ 100 where A is the absorbance of the negative control (substrate and enzyme), B is the absorbance of the blank (buffer only) and C is the absorbance of the sample (enzyme, substrate and sample). For the positive control, captopril was used instead of a sample and was considered as C.

[2] = test system: methyl predenisolone-induced hypertensive rats; experiment: Antihypertensive activity, non-invasive tail-cuff method; type: in vivo, rat; set-up: Systolic BP / Diastolic BP: unit not given here; details: for Diastolic BP / Heart Rate / MABP / Systolic BP: methyl predenisolone 20 mg/kg/week rats, n = 4, mean ± S.E.M.
Protocol: After recording the initial BP of rats, the animals were divided into seven groups of four animals each. One group was chosen as the control group. The remaining groups were given a subcutaneous injection of methyl-predenisolone acetate (20 mg/kg/week) for one week, as described by Ekerbicer, N et al.. […] In total, 28 animals were evenly divided into 7 groups of 4 animals each to attain maximum balance of subjects across experimental conditions. […] Animals in group II (hypertensive control) were injected methylprednisolone acetate (20 mg/kg/week) intraperitoneally for hypertension induction, creating a baseline model of plateau hypertension. Animals in Group III were administered with 20 mg/kg/week intraperitoneal injection of methylprednisolone treated with captopril at an oral dosage of 5 mg/kg/day. For Group IV, the basal dosage of methylprednisolone was provided along with a higher dosage of captopril (10 mg/kg/day by oral route). […] The inclusion of multiple treatment groups with varying doses provided insights into the relative efficacy and dose-response relationship of the interventions. Randomization was done by block randomization, ensuring without bias these allocations of animals into groups. Before intervention, baseline characteristics such as weight, age, or sex of animals were determined, and t-test or ANOVA was used to affirm that no significant difference between groups existed. The SYRCLE’s Risk of Bias tool analyzed potential biases across various domains like selection, performance, and detection bias; each domain was rated according to low, high, or unclear risk.
The CODA Non-Invasive Blood Pressure Recorder (Kent Scientific Corporation, Torrington, CT, USA) was used to measure mean arterial blood pressure in conscious rats using the tail-cuff method. With the rat’s tail protruding, the restrainer was inserted in the BP instrument. […] The tail was gently pressed against a transducer membrane that was linked to the digital BP display panel. After that, the device was turned on and stabilized until a consistent pulse rate was seen. […] In this investigation, albino rats (body weight 150–200 g) were employed. Rats were divided into four groups, each with four individuals. […] After 1 h, the mean arterial blood pressure was measured.
Statistical analysis was carried out by one-way analysis of variance followed by Dunnet’s multiple comparison test using GraphPad InStat 3 (Graph Pad Software Inc., San Diego, CA, USA). All values were expressed as mean ± standard error of the mean (SEM). All groups were compared with hypertensive control animals. p-value of <0.01 was statistically significant.

Chain of ACE enzyme (P12821 30-1306, species assumed): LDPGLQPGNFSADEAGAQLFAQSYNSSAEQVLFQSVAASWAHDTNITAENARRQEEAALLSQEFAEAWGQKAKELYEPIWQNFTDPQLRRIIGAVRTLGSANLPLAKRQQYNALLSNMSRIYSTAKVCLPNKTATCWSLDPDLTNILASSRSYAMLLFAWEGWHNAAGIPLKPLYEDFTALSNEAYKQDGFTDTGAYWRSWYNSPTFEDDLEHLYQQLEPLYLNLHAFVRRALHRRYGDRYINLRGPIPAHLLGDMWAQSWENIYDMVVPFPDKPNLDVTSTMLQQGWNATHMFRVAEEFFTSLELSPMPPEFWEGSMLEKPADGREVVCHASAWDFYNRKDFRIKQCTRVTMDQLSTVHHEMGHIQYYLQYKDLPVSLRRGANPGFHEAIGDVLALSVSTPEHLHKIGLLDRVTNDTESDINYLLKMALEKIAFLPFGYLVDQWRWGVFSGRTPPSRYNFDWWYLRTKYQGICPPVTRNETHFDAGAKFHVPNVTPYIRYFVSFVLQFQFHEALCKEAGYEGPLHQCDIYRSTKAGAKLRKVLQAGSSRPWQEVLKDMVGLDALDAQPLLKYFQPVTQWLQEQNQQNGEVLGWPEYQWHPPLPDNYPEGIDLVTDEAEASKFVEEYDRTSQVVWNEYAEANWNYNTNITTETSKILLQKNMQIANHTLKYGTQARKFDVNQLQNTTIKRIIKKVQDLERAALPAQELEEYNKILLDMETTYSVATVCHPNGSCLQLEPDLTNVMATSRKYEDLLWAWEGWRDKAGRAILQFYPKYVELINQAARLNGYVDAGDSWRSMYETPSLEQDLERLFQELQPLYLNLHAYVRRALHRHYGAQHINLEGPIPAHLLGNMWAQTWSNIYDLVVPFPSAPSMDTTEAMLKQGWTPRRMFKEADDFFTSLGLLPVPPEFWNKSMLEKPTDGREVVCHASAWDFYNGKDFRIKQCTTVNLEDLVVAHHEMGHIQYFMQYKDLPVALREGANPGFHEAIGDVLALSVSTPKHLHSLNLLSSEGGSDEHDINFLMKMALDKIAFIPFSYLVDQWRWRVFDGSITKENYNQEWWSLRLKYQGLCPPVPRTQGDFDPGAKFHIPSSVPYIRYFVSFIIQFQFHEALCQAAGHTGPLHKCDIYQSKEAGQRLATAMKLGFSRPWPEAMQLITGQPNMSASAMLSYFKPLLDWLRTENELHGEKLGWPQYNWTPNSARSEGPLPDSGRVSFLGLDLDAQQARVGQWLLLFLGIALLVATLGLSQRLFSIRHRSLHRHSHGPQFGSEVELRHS

Cmax ([1]; 10 mg/kg b.w. oral): 100 µg/mL
MRT ([1]; 10 mg/kg b.w. oral): 3.05 h
AUC(0-t) ([1]; 10 mg/kg b.w. oral): 438 µg·h/mL
Cmax ([1]; 20 mg/kg b.w. oral): 119 µg/mL
MRT ([1]; 20 mg/kg b.w. oral): 2.98 h
AUC(0-t) ([1]; 20 mg/kg b.w. oral): 499 µg·h/mL
Cmax ([1]; 40 mg/kg b.w. oral): 125 µg/mL
MRT ([1]; 40 mg/kg b.w. oral): 3.04 h
AUC(0-t) ([1]; 40 mg/kg b.w. oral): 539 µg·h/mL
Elimination Rate ([1]; 10 mg/kg b.w. oral): 0.0001236 h⁻¹
Elimination Rate ([1]; 20 mg/kg b.w. oral): 0.0006846 h⁻¹
Elimination Rate ([1]; 40 mg/kg b.w. oral): 0.0002917 h⁻¹
bioavailability ([1]; oral): moderate
pIC50 (ACE enzyme): ~4.70
inhibition at 100 µM (ACE enzyme; read-out: maximum ACE inhibition): ~82%
Structure (SMILES): COc1cc2oc(-c3ccc(O)cc3)c(OC3OC(CO)C(O)C(O)C3O)c(=O)c2c(O)c1OC (stereo not shown)
Diastolic BP ([2]; 10 mg/kg): 126.99 ± 6.80
Heart Rate ([2]; 10 mg/kg): 443.99 ± 15.12 Beats/min
MABP ([2]; 10 mg/kg): 144.4 ± 4.59 mmHg
Systolic BP ([2]; 10 mg/kg): 179.19 ± 7.18
Diastolic BP ([2]; 20 mg/kg oral): 110.88 ± 10.28
Heart Rate ([2]; 20 mg/kg oral): 430.66 ± 10.5 Beats/min
MABP ([2]; 20 mg/kg oral): 120.1 ± 5.1 mmHg
Systolic BP ([2]; 20 mg/kg oral): 138.44 ± 7.09
Diastolic BP ([2]; 40 mg/kg oral): 85.76 ± 7.4
Heart Rate ([2]; 40 mg/kg oral): 408.99 ± 9.0 Beats/min
MABP ([2]; 40 mg/kg oral): 95.53 ± 7.5 mmHg
Systolic BP ([2]; 40 mg/kg oral): 114.99 ± 5.8
blood pressure in treated rats ([2]; 10, 20 and 40 mg/kg): dose-dependent decrease in blood pressure
systolic and diastolic blood pressures compared with vehicle ([2]; methyl predenisolone-induced hypertensive rats, p < 0.01): significantly lower

Structure (SMILES): C[C@H](CS)C(=O)N1CCC[C@H]1C(=O)O [Captopril, captopril, reference compound]
Diastolic BP ([2]; 5 mg/kg): 117.8 ± 11.19
Heart Rate ([2]; 5 mg/kg): 507.11 ± 6.13 Beats/min
MABP ([2]; 5 mg/kg): 126.19 ± 11.10 mmHg
Systolic BP ([2]; 5 mg/kg): 142.99 ± 10.88
Diastolic BP ([2]; 10 mg/kg): 98.66 ± 10.18
Heart Rate ([2]; 10 mg/kg): 421.78 ± 12.0 Beats/min
MABP ([2]; 10 mg/kg): 112.6 ± 5.17 mmHg
Systolic BP ([2]; 10 mg/kg): 136.77 ± 6.13
